In patent US20250206732A1, “COMPOUNDS AND METHODS FOR THE TARGETED DEGRADATION OF KRAS” (Arvinas Operations, Inc., priority 2022, published 2025):

Molecular target: T1, AsPC-1 HiBiT-KRASG12D (Homo sapiens, UniProt P01116, G12D)
T1 construct: insert the HiBiT tag onto the N-terminus of one or more of the endogenous KRAS alleles; endogenous in cells; host or cells: AsPC-1 (ATCC CRL-1682), CRISPR-Cas9 knock-in clone, one tagged allele
Assay: HiBiT degradation assay (G12D), AsPC-1 HiBiT-KRASG12D cells
Format: cell-based
Details: 24 hours treatment; for Dmax: ASPC1, AsPC-1 HiBiT-KRASG12D cells; for DC50: HiBiT luminescence
Outline: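 AsPC-1 cells (homozygous G12D) carrying a CRISPR knock-in N-terminal HiBiT tag on endogenous KRAS were treated with compounds for 24 hours at 37° C, 5% CO2, in triplicate. Alamar blue viability was read first, then cells were washed and lysed with Nano-Glo HiBiT reagent for 45 minutes before luminescence reading.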

T1 sequence (P01116 1-188 isoform P01116-2 G12D): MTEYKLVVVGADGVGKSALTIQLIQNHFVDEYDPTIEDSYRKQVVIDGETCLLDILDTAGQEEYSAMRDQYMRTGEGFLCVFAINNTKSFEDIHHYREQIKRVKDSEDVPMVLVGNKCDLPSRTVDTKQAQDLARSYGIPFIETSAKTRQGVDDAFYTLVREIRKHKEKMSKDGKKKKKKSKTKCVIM

| SMILES | Dmax (maximum degradation observed) [%] | DC50 (AsPC-1 HiBiT-KRASG12D cells) [nM] | AsPC-1 HiBiT-KRASG12D DMax (AsPC-1 HiBiT-KRASG12D cells, maximum degradation observed) |
| --- | --- | --- | --- |
| CCc1cccc2cc(O)cc(-c3ncc4c(N5CC6CCC(C5)N6)nc(OC[C@]56CCCN5[C@H](COC(=O)N5CCC(Oc7cc([C@@H](C(=O)N8C[C@H](O)C[C@H]8C(=O)N[C@@H](C)c8ccc(-c9scnc9C)cc8)C(C)C)on7)CC5)CC6)nc4c3F)c12 [Compound 119, [(3S,7aR)-7a-{[(4-{3,8-diazabicyclo[3.2.1]octan-3-yl}-7-(8-ethyl-3-hydroxynaphthalen-1-yl)-8-fluoropyrido[4,3-d]pyrimidin-2-yl)oxy]methyl}-hexahydro-1H-pyrrolizin-3-yl]methyl 4-({5-[(2S)-1-[(2S,4R)-4-hydroxy-2-{[(1S)-1-[4-(4-methyl-1,3-thiazol-5-yl)phenyl]ethyl]carbamoyl}pyrrolidin-1-yl]-3-methyl-1-oxobutan-2-yl]-1,2-oxazol-3-yl}oxy)piperidine-1-carboxylate] | 20 to 60 | < 600 | – |
| CCc1cccc2cc(O)cc(-c3ncc4c(N5CC6CCC(C5)N6)nc(OCCN5CCC(F)(CN6CCN(c7cnc(C(=O)N[C@H](C(=O)N8C[C@H](O)C[C@H]8C(=O)N[C@@H](C)c8ccc(-c9scnc9C)cc8)C(C)(C)C)cn7)CC6)CC5)nc4c3F)c12 [Compound 155, 5-{4-[(1-{2-[(4-{3,8-diazabicyclo[3.2.1]octan-3-yl}-7-(8-ethyl-3-hydroxynaphthalen-1-yl)-8-fluoropyrido[4,3-d]pyrimidin-2-yl)oxy]ethyl}-4-fluoropiperidin-4-yl)methyl]piperazin-1-yl}-N-[(2S)-1-[(2S,4R)-4-hydroxy-2-{[(1S)-1-[4-(4-methyl-1,3-thiazol-5-yl)phenyl]ethyl]carbamoyl}pyrrolidin-1-yl]-3,3-dimethyl-1-oxobutan-2-yl]pyrazine-2-carboxamide] | 60 to 80 | < 600 | – |
| CCc1cccc2cc(O)cc(-c3ncc4c(N5CC6CCC(C5)N6)nc(OCCN5CCC(CN6CCN(c7cc([C@H](C(=O)N8C[C@H](O)C[C@H]8C(=O)N[C@@H](C)c8ccc(-c9scnc9C)cc8)C(C)C)on7)CC6)CC5)nc4c3F)c12 [Compound 211, (2S,4R)-1-[(2R)-2-(3-{4-[(1-{2-[(4-{3,8-diazabicyclo[3.2.1]octan-3-yl}-7-(8-ethyl-3-hydroxynaphthalen-1-yl)-8-fluoropyrido[4,3-d]pyrimidin-2-yl)oxy]ethyl}piperidin-4-yl)methyl]piperazin-1-yl}-1,2-oxazol-5-yl)-3-methylbutanoyl]-4-hydroxy-N-[(1S)-1-[4-(4-methyl-1,3-thiazol-5-yl)phenyl]ethyl] pyrrolidine-2-carboxamide] | 80 to 100 | < 600 | – |
| CCc1cccc2cc(O)cc(-c3ncc4c(N5CCCCCC5)nc(OC[C@]56CCCN5[C@H](COC(=O)N5CC7(C5)CN(c5cc([C@H](C(=O)N8C[C@H](O)C[C@H]8C(=O)N[C@@H](C)c8ccc(-c9scnc9C)cc8)C(C)C)on5)C7)CC6)nc4c3F)c12 [Compound 283, [(3S,8R)-8-[[4-(azepan-1-yl)-7-(8-ethyl-3-hydroxy-1-naphthyl)-8-fluoro-pyrido[4,3-d]pyrimidin-2-yl]oxymethyl]-1,2,3,5,6,7-hexahydropyrrolizin-3-yl]methyl 6-[5-[(1R)-1-[(2S,4R)-4-hydroxy-2-[[(1S)-1-[4-(4-methylthiazol-5-yl)phenyl]ethyl]carbamoyl]pyrrolidine-1-carbonyl]-2-methyl-propyl]isoxazol-3-yl]-2,6-diazaspiro[3.3]heptane-2-carboxylate] | 80 to 100 | < 600 | – |
| CCc1cccc2cc(O)cc(-c3ncc4c(N5CC6CCC(C5)N6)nc(OCCN5CCC(CC6CCN(c7cc(C(C(=O)N8C[C@H](O)C[C@H]8C(=O)N[C@@H](C)c8ccc(-c9scnc9C)cc8)C(C)C)on7)CC6)CC5)nc4c3F)c12 (single isomer, unassigned) [Compound 320] | – | < 600 | A (80% < A ≤ 100%) |
| CCc1cccc2cc(O)cc(-c3ncc4c(N5CC6CCC(C5)N6)nc(OC[C@]56CCCN5[C@H](COC(=O)N5CCN(c7cc([C@@H](C(=O)N8C[C@H](O)C[C@H]8C(=O)N[C@@H](C)c8ccc(-c9scnc9C)cc8)C(C)C)on7)C[C@@H]5C)CC6)nc4c3F)c12 [Compound 133, [(3S,7aR)-7a-{[(4-{3,8-diazabicyclo[3.2.1]octan-3-yl}-7-(8-ethyl-3-hydroxynaphthalen-1-yl)-8-fluoropyrido[4,3-d]pyrimidin-2-yl)oxy]methyl}-hexahydro-1H-pyrrolizin-3-yl]methyl (2S)-4-{5-[(2S)-1-[(2S,4R)-4-hydroxy-2-{[(1S)-1-[4-(4-methyl-1,3-thiazol-5-yl)phenyl]ethyl]carbamoyl}pyrrolidin-1-yl]-3-methyl-1-oxobutan-2-yl]-1,2-oxazol-3-yl}-2-methylpiperazine-1-carboxylate] | < 20 | < 600 | – |
| CCc1cccc2cc(O)cc(-c3ncc4c(N5CC6CCC(C5)N6)nc(OCCN5CCC(F)(CN6CCN(c7cc([C@H](C(=O)N8C[C@H](O)C[C@H]8C(=O)N[C@@H](C)c8ccc(-c9scnc9C)cc8)C(C)C)on7)C[C@@H]6C)CC5)nc4c3F)c12 [Compound 214, (2S,4R)-1-[(2R)-2-{3-[(3S)-4-[(1-{2-[(4-{3,8-diazabicyclo[3.2.1]octan-3-yl}-7-(8-ethyl-3-hydroxynaphthalen-1-yl)-8-fluoropyrido[4,3-d]pyrimidin-2-yl)oxy]ethyl}-4-fluoropiperidin-4-yl)methyl]-3-methylpiperazin-1-yl]-1,2-oxazol-5-yl}-3-methylbutanoyl]-4-hydroxy-N-[(1S)-1-[4-(4-methyl-1,3-thiazol-5-yl)phenyl]ethyl]pyrrolidine-2-carboxamide] | 80 to 100 | < 600 | – |
| CCc1cccc2cc(O)cc(-c3ncc4c(N5CCCCCC5)nc(OC[C@]56CCCN5[C@H](COC(=O)N5CC(Oc7cc([C@H](C(=O)N8C[C@H](O)C[C@H]8C(=O)N[C@@H](C)c8ccc(-c9scnc9C)cc8)C(C)C)on7)C5)CC6)nc4c3F)c12 [Compound 300] | 80 to 100 | < 600 | – |
| CCc1cccc2cc(O)cc(-c3ncc4c(N5CCCCCC5)nc(OC[C@]56CCCN5[C@H](COc5cc([C@@H](C(=O)N7C[C@H](O)C[C@H]7C(=O)N[C@@H](C)c7ccc(-c8scnc8C)cc7)C(C)C)on5)CC6)nc4c3F)c12 [Compound 207, (2S,4R)-1-[(2S)-2-(3-{[(3S,7aR)-7a-({[4-(azepan-1-yl)-7-(8-ethyl-3-hydroxynaphthalen-1-yl)-8-fluoropyrido[4,3-d]pyrimidin-2-yl]oxy}methyl)-hexahydro-1H-pyrrolizin-3-yl]methoxy}-1,2-oxazol-5-yl)-3-methylbutanoyl]-4-hydroxy-N-[(1S)-1-[4-(4-methyl-1,3-thiazol-5-yl)phenyl]ethyl]pyrrolidine-2-carboxamide] | – | > 3000 | – |
| CCc1cccc2cc(O)cc(-c3ncc4c(N5CC6CCC(C5)N6)nc(OC[C@@]56CCCN5[C@H](COC(=O)N5CC7(C5)CN(c5cc([C@H](C(=O)N8C[C@H](O)C[C@H]8C(=O)N[C@@H](C)c8ccc(-c9scnc9C)cc8)C(C)C)on5)C7)CC6)nc4c3F)c12 [Compound 112, [(3S,7aS)-7a-{[(4-{3,8-diazabicyclo[3.2.1]octan-3-yl}-7-(8-ethyl-3-hydroxynaphthalen-1-yl)-8-fluoropyrido[4,3-d]pyrimidin-2-yl)oxy]methyl}-hexahydro-1H-pyrrolizin-3-yl]methyl 6-{5-[(2R)-1-[(2S,4R)-4-hydroxy-2-{[(1S)-1-[4-(4-methyl-1,3-thiazol-5-yl)phenyl]ethyl]carbamoyl}pyrrolidin-1-yl]-3-methyl-1-oxobutan-2-yl]-1,2-oxazol-3-yl}-2,6-diazaspiro[3.3]heptane-2-carboxylate] | 80 to 100 | < 600 | – |
| CCc1cccc2cc(O)cc(-c3ncc4c(N5CC6CCC(C5)N6)nc(OC[C@]56CCCN5[C@H](COC(=O)N5CCC(Oc7cc([C@H](C(=O)N8C[C@H](O)C[C@H]8C(=O)N[C@@H](C)c8ccc(-c9scnc9C)cc8)C(C)C)on7)CC5)CC6)nc4c3F)c12 [Compound 116, [(3S,7aR)-7a-{[(4-{3,8-diazabicyclo[3.2.1]octan-3-yl}-7-(8-ethyl-3-hydroxynaphthalen-1-yl)-8-fluoropyrido[4,3-d]pyrimidin-2-yl)oxy]methyl}-hexahydro-1H-pyrrolizin-3-yl]methyl 4-({5-[(2R)-1-[(2S,4R)-4-hydroxy-2-{[(1S)-1-[4-(4-methyl-1,3-thiazol-5-yl)phenyl]ethyl]carbamoyl}pyrrolidin-1-yl]-3-methyl-1-oxobutan-2-yl]-1,2-oxazol-3-yl}oxy)piperidine-1-carboxylate] | 80 to 100 | < 600 | – |
| CCc1cccc2cc(O)cc(-c3ncc4c(N5CC6CCC(C5)N6)nc(OC[C@]56CCCN5[C@H](COC(=O)N5CC7(C5)CN(c5cc([C@@H](C(=O)N8C[C@H](O)C[C@H]8C(=O)N[C@@H](C)c8ccc(-c9scnc9C)cc8)C(C)C)on5)C7)CC6)nc4c3F)c12 [Compound 144, [(3S,7aR)-7a-{[(4-{3,8-diazabicyclo[3.2.1]octan-3-yl}-7-(8-ethyl-3-hydroxynaphthalen-1-yl)-8-fluoropyrido[4,3-d]pyrimidin-2-yl)oxy]methyl}-hexahydro-1H-pyrrolizin-3-yl]methyl 6-{5-[(2S)-1-[(2S,4R)-4-hydroxy-2-{[(1S)-1-[4-(4-methyl-1,3-thiazol-5-yl)phenyl]ethyl]carbamoyl}pyrrolidin-1-yl]-3-methyl-1-oxobutan-2-yl]-1,2-oxazol-3-yl}-2,6-diazaspiro[3.3]heptane-2-carboxylate] | 20 to 60 | 600 to 1000 | – |
